Results from patent US8716326B2, “Isoindolinone derivatives, preparation method thereof and a pharmaceutical composition comprising same” (Korea Research Institute of Chemical Technology, priority 2009, dated 2014).

How the values were obtained:
rats calvarias = experiment: Bone formation in rats calvarias loss site in vivo; conditions: 8 mm calvarias hole, vs control
Description: To investigate the effect of the amide compound according to the present invention on bone formation, bone formation ability of the said compound in the rats calvarias loss site was examined in vivo by using the compounds obtained in Example 8 and 27.
Specifically, the hole of the diameter of 8 mm was made in calavarias of rats by using trephine bur, and the collagen sponge prepared in Experimental Example 3 treated with 0.2 mg of the compound obtained in Example 8 in 15 μl of DMSO was placed at the site of loss. As a control group, the collagen sponge treated with only 100 μl of DMSO was treated at the site of loss. After 6 days from the suture of the calvarias scalp, the rats were sacrificed to obtain calvarias. Micro-computed tomography scan (SMX-90CT; Shimadzu, Japan) was performed and 3-dimensional image thereof was obtained.
Further, bone mineral content (BMC) of the test and control group was measured by using TRI 3D-BON (RATOC system Engineering Co., Tokyo, JP) based on the 3-dimensional image (see, Volume Graphics, VG studio Max 1.2.1). […]
Further, bone mineral content (BMC) of the test and control group was measured by using TRI 3D-BON (RATOC system Engineering Co., Tokyo, JP) based on the 3-dimensional image.

Runx2 = Runx2 activity, 6xOSE2-Luc luciferase reporter in transfected C2C12 cells; type: cell-based, Mouse; conditions: Mus musculus, 24 hrs, read-out: luciferase activity relative to control set as 1
How it was run: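 Compound exposure of 24 h at 2.5, 5.0, 10 and 20 μM, in 5% FBS DMEM, was applied to transfected C2C12 cells with an OSE2 hexamer-driven luciferase construct reporting Runx2 activity. Read-out: dual-luciferase signal in cell lysates, normalised to equal-volume DMSO control (=1).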

mice calvarias = experiment: Mice calvarias loss inhibition, bone loss induced by interleukin-1 in vivo; conditions: IL-1 collagen sponge, 0.2 mg per mouse intraperitoneally, 7 days, vs vehicle
Description: Specifically, 5 to 7 ml of collagen (Cellmatrix type I-A; Wako co., Japan, Cat. No. 637-00653) was poured into petri dish (60×15 mm), and lyophlilized. The lyophlilized collagen sponge was made to the desired size which is appropriate to be implanted, and in order to induce local bone loss of mice, interleukin-1 (Peprotech; London, GB) was diluted with phosphate-buffered-saline solution to 2 μg per one mouse to be treated onto collagen sponge. The collagen sponge treated with interleukin-1 was contacted to the surface of mice carvarias through mice scalp incision, was implanted to 5 mice (5-week-male, ICR strain) in the test group and the control group, respectively, and was sutured. 7 days later, the mice were sacrificed to obtain calvarias. The test group was intraperitoneally injected with the dose of 0.2 mg of the compound obtained in Example 8 per one mouse from the next day of surgery to the day before the sacrifice. The control group was intraperitoneally injected with 100 μl of DMSO. After 7 days, the mice were sacrificed, and the extracted calvarias were washed 3-4 times with phosphate-buffered-saline solution and fixed in 4% paraformaldehyde for 24 hrs. Micro-computed tomography scan (SMX-90CT; Shimadzu, Japan) was performed for the fixed mice calvarias and 3-dimensional image thereof was obtained.
Further, bone mineral content (BMC) was measured by using TRI 3D-BON (RATOC system Engineering Co., Tokyo, Japan) based on the 3-dimensional image (see Volume Graphics, VG studio Max 1.2.1).
Histological studies were conducted in order to investigate the number of osteoclastic cells directly relating to bone loss. Specifically, the calvarias were decalcificated (solution was replaced every 2-3 days) with 12% EDTA (pH 7.2-7.4) for 14 days and embedded in paraffin. TRAP staining (Sigma-Aldrich) was performed on the embedded whole calvarias.
In addition, the whole area of osteoclast which is red-stained, that is, TRAP-positive was shown in graph by using image J program.
The procedure of the Experimental Example 3 was repeated except for using the compound obtained in Example 94 instead of the compound obtained in Example 8, to examine the effect on mice calvarias loss inhibition.
Histological studies were conducted in order to investigate the number of osteoclastic cells directly relating to bone loss. Specifically, the calvarias were decalcificated (solution was replaced every 2-3 days) with 12% EDTA (pH 7.2-7.4) for 14 days and embedded in paraffin.
H-E (Hematotoxin-eosin) and TRAP staining (Sigma-Aldrich) were performed on the embedded whole calvarias. The results are given in FIGS. 4b and 4c, respectively. In addition, the whole area of osteoclast of the test and control group was shown in graph by using image J program.

| Compound | BMC (bone content) (rats calvarias; collagen sponge with 0.2 mg compound) | fold induction at 2.5 µM (Runx2) | fold induction at 5 µM (Runx2) | fold induction at 10 µM (Runx2) | fold induction at 20 µM (Runx2) | bone loss in calvarias (micro-computed tomography) (mice calvarias) | osteoclast (TRAP-positive area) (mice calvarias) | whole bone mineral content (BMC) (mice calvarias) | BMC (bone content) (rats calvarias; collagen sponge with 0.2 mg or 0.5 mg compound) |
| --- | --- | --- | --- | --- | --- | --- | --- | --- | --- |
| COc1cc2c(c(-c3cncnc3)c1OC)CN(Cc1ccc(C(=O)Nc3ccccc3N)cc1)C2=O [Example 8, N-(2-aminophenyl)-4-((5,6-dimethoxy-1-oxo-4-(pyrimidin-5-yl)isoindolin-2-yl)methyl)benzamide] | unexpectedly increased | 28.5 | 33.4 | 36 | 30.1 | suppressed | remarkably reduced | increased |  |
| Cc1cc(C(=O)NCCCCCC(=O)NO)ccc1-c1ccccc1 [Example 94, N-(5-(hydroxycarbamoyl)pentyl)-3-methyl-4-phenylbenzamide] |  | 1.6 | 3.4 | 7.5 | 10.7 | suppressed | remarkably reduced |  | unexpectedly increased |
